Several values for one entry are separate records, joined by “and”; a condition that tells them apart may be missing. Equal entries are not always repeated. Where two headings read alike, the source gives them in different places.

Here are results for 22 molecules from US12642271B2, “Active compound combinations comprising a (thio)carboxamide derivative and a fungicidal compound” (Bayer CropScience Aktiengesellschaft, priority 2011, dated 2026).

Assay [1] deals with Fusarium nivale (var. majus). As to the kind of experiment: Fusarium nivale (var. majus)-test (wheat)/preventive. Particulars: for pest or weed control at 40 ppm / pest or weed control at 20 ppm / pest or weed control at 80 ppm / pest or weed control at 10 ppm: Microdochium nivale, in Triticum aestivum, 120 h; for pest or weed control at 20 ppm: 20 ppm a.i.; for pest or weed control at 80 ppm: 80 ppm a.i.
Description: After the spray coating has been dried, the plants are slightly injured by using a sandblast and afterwards they are sprayed with a conidia suspension of Fusarium nivale (var. majus).
The plants are placed in the greenhouse under a translucent incubation cabinet at a temperature of approximately 10° C. and a relative atmospheric humidity of approximately 100%.
The test is evaluated 5 days after the inoculation.

For assay [2], the system named is Leptosphaeria nodorum. As to the kind of experiment: Leptosphaeria nodorum test (wheat)/preventive. Type of assay: in vivo.
Assay [3] relates to Septoria tritici. Description: Septoria tritici-test (wheat)/preventive. Particulars: preventive, evaluated 21 days after inoculation; for pest or weed control at 10 ppm: Zymoseptoria tritici, 504 h, read-out: Efficacy in % found. Type of assay: in vivo.
The subject of assay [4] is Venturia inaequalis. Description: Venturia test (apples)/preventive. The following applies: for pest or weed control at 1 ppm: 1 ppm a.i.
Description: After the spray coating has dried on, the plants are inoculated with an aqueous conidia suspension of the causal agent of apple scab (Venturia inaequalis) and then remain for 1 day in an incubation cabinet at approximately 20° C. and a relative atmospheric humidity of 100%.
The plants are then placed in a greenhouse at approximately 21° C. and a relative atmospheric humidity of approximately 90%.
The test is evaluated 10 days after the inoculation.
In assay [5] the test system is Alternaria solani. Description: Alternaria test (tomatoes)/preventive. Type of assay: in vivo.
The test system of assay [6] is Blumeria graminis f.sp. hordei. As to the kind of experiment: Blumeria test (barley)/preventive. Type of assay: in vivo.
Assay [7] has as its system Puccinia triticina. Description: Puccinia triticina-test (wheat)/preventive. Type of assay: in vivo. The following applies: preventive, evaluated 8 days after inoculation.
In assay [8] the test system is Sphaerotheca fuliginea. Description: Sphaerotheca test (cucumbers)/preventive. Type of assay: in vivo.
In assay [9] the test system is Phytophthora infestans. As to the kind of experiment: whole plant or invertebrate. Type of assay: in vivo.
The mark [10] stands for this setting: read-out: Efficacy in % found, Table 8c.
[11] abbreviates: read-out: Efficacy in % found, Table 8e.
The mark [12] stands for this setting: Phytophthora infestans, 72 h, read-out: Efficacy in % found.

As to `Fc1ccc([C@]2(Cn3cncn3)O[C@H]2c2ccccc2Cl)cc1` (racemic) [B1.12, epoxiconazole], the pest or weed control at 40 ppm in assay [1] (read-out: Efficacy in % found, Table 8e, 40 ppm a.i.) is 0%. Further, the pest or weed control at 10 ppm in [2] (Parastagonospora nodorum, 192 h, Table 9a, 10 ppm a.i., read-out: Efficacy in % found) worked out at 0%; in assay [2] (Parastagonospora nodorum, 192 h, application rate 10 ppm, wheat, preventive, evaluated 8 days after inoculation, read-out: Efficacy in % found), 29%; in assay [3] (application rate 10 ppm a.i.), 0%.
`Cn1cc(C(=O)Nc2cccc3c2[C@@H]2CC[C@H]3C2=C(Cl)Cl)c(C(F)F)n1` (racemic) [B2.29, benzovindiflupyr]: the “Efficacy in % found” value is given as 76% in assay [4] (Table 2e, 0.1 ppm a.i.); 25% in assay [1] (Table 8f, 120 ppm a.i.); 21% in assay [5] (Table 3e, 0.5 ppm).
For the molecule `CC(C)c1ccc(F)cc1CN(C(=O)c1c(C(F)F)nn(C)c1F)C1CC1` [A7, N-cyclopropyl-3-(difluoromethyl)-5-fluoro-N-(5-fluoro-2-isopropylbenzyl)-1-methyl-1H-pyrazole-4-carboxamide], in assay [3] (application rate 10 ppm a.i.), the pest or weed control at 10 ppm is 71%.
For the molecule `Cc1ccc(C(C)C)c(CN(C(=O)c2c(C(F)F)nn(C)c2F)C2CC2)c1` [A12, N-cyclopropyl-3-(difluoromethyl)-5-fluoro-N-(2-isopropyl-5-methylbenzyl)-1-methyl-1H-pyrazole-4-carboxamide], in [6] (Blumeria graminis, 168 h, Table 6f, 10 ppm a.i., read-out: Efficacy in % found), the pest or weed control at 10 ppm turned out to be 50%. In addition, the pest or weed control at 40 ppm in assay [7] (Puccinia triticina, 192 h, application rate 40 ppm a.i., read-out: Efficacy in % found) is 89%.
Take `CC1(C)CCC(Cc2ccc(Cl)cc2)C1(O)Cn1cncn1` (stereo not shown) [B1.30, metconazole]: the pest or weed control at 1 ppm in assay [4] (Venturia inaequalis, 240 h, read-out: Efficacy in % found, Table 2c) was determined as 38%. Also, the pest or weed control at 20 ppm in assay [1] (setting [10]) was found to be 13%; in assay [7] (Puccinia triticina, 192 h, application rate 20 ppm a.i., read-out: Efficacy in % found), 44%. Besides, the pest or weed control at 80 ppm in [1] (setting [11]) stood at 0%; in assay [2] (Parastagonospora nodorum, 192 h, application rate 80 ppm, wheat, preventive, evaluated 8 days after inoculation, read-out: Efficacy in % found), 44%. Further, the pest or weed control at 5 ppm in assay [8] (Podosphaera fuliginea, 168 h, Table 4d, 5 ppm a.i., read-out: Efficacy in % found) was 77%.
As for `CCCC1COC(Cn2cncn2)(c2ccc(Cl)cc2Cl)O1` (stereo not shown) [B1.40, propiconazole], the pest or weed control at 20 ppm in assay [1] (read-out: Efficacy in % found, Table 8b) amounted to 0%; in assay [2] (Parastagonospora nodorum, 192 h, application rate 20 ppm, wheat, preventive, evaluated 8 days after inoculation, read-out: Efficacy in % found), 0%. The pest or weed control at 2 ppm in assay [5] (Alternaria solani, 72 h, Table 3c, 2 ppm, read-out: Efficacy in % found) is 0%.
Consider `Cn1cc(C(=O)Nc2ccc(F)cc2-c2ccc(Cl)c(Cl)c2)c(C(F)F)n1` [B2.1, bixafen], for which the “Efficacy in % found” value in assay [1] (Table 8b, 10 ppm a.i.) is 14%; in assay [2] (Table 9a, 40 ppm a.i.), 0%; in assay [2] (application rate 40 ppm, wheat, preventive, evaluated 8 days after inoculation) it was 0%; in assay [3] (application rate 10 ppm a.i.) it was 29%; in assay [3] (application rate 40 ppm a.i.), 29%; in [8] (Table 4d, 0.5 ppm a.i.), 67%. The “Efficacy in % found” value in assay [7] (application rate 40 ppm a.i.) was 22%.
For `CC(C)CC(C)c1sccc1NC(=O)c1cn(C)nc1C(F)(F)F` (stereo not shown) [B2.21, penthiopyrad], the pest or weed control at 0.5 ppm in assay [4] (Venturia inaequalis, 240 h, read-out: Efficacy in % found, Table 2d, 0.5 ppm a.i.) was 0%; in assay [8] (Podosphaera fuliginea, 168 h, Table 4d, 0.5 ppm a.i., read-out: Efficacy in % found), 0%. The pest or weed control at 20 ppm in assay [1] (setting [10]) stood at 13%; in assay [6] (Blumeria graminis, 168 h, Table 6a, 20 ppm a.i., read-out: Efficacy in % found), 20%. Further, the pest or weed control at 80 ppm in [1] (setting [11]) was 0%; in [7] (Puccinia triticina, 192 h, application rate 80 ppm a.i., read-out: Efficacy in % found), 78%.
On to `CCCCCCCCc1c(CC)nc2ncnn2c1N` [B3.1, ametoctradin], for which, in [9] (Table 1a, 5 ppm a.i.), the “Efficacy in % found” value was determined as 48%.
For the molecule `COC(=O)N(OC)c1ccccc1COc1ccn(-c2ccc(Cl)cc2)n1` [B3.17, pyraclostrobin], the pest or weed control at 1 ppm worked out at 79% in assay [4] (Venturia inaequalis, 240 h, read-out: Efficacy in % found, Table 2b) and 53% in [9] (setting [12]). The pest or weed control at 40 ppm in assay [1] (read-out: Efficacy in % found, Table 8a, 40 ppm) came out at 93%; in assay [2] (Parastagonospora nodorum, 192 h, application rate 40 ppm, wheat, preventive, evaluated 8 days after inoculation, read-out: Efficacy in % found) it was 57%; in [6] (Blumeria graminis, 168 h, Table 6b, 40 ppm a.i., read-out: Efficacy in % found), 20%. In addition, the pest or weed control at 10 ppm in assay [1] (read-out: Efficacy in % found, Table 8e, 10 ppm a.i.) amounted to 57%; in [1] (read-out: Efficacy in % found, Table 8d, 10 ppm a.i.), 71%. Also, the pest or weed control at 2 ppm in assay [8] (Podosphaera fuliginea, 168 h, Table 4d, 2 ppm a.i., read-out: Efficacy in % found) came out at 0%.
In the case of `O=C(NCc1ncc(C(F)(F)F)cc1Cl)c1c(Cl)cccc1Cl` [B4.6, fluopicolide], the “Efficacy in % found” value in assay [9] (Table 1a, 1 ppm a.i.) turned out to be 13%; in assay [2] (Table 9c, 100 ppm a.i.), 17%; in assay [6] (Table 6f, 400 ppm a.i.), 13%.
Turning to `N#Cc1c(Cl)c(Cl)c(Cl)c(C#N)c1Cl` [B5.4, chlorothalonil], the pest or weed control at 12.5 ppm in [4] (Venturia inaequalis, 240 h, read-out: Efficacy in % found, Table 2a, 12.5 ppm a.i.) was found to be 35%. The pest or weed control at 50 ppm in assay [9] (setting [12]) amounted to 75%; in assay [5] (Alternaria solani, 72 h, Table 3a, 50 ppm a.i., read-out: Efficacy in % found) it was 35%.
For `N#Cc1ccccc1NC(=O)c1snc(Cl)c1Cl` [B6.2, isotianil], the “Efficacy in % found” value came to 38% in assay [6] (Table 6b, 100 ppm a.i.) and 27% in assay [5] (Table 3b, 50 ppm).
Regarding `COCC(=O)N(c1c(C)cccc1C)[C@H](C)C(=O)OC` [B12.10, mefenoxam], the “Efficacy in % found” value in assay [2] (application rate 100 ppm, wheat, preventive, evaluated 8 days after inoculation) is given as 0%; in [6] (Table 6f, 400 ppm a.i.) it was 25%.
On to `CCO[PH](=O)O` [B15.24, fosetyl-Al], for which the “Efficacy in % found” value turned out to be 0% in assay [4] (Table 2a, 50 ppm a.i.); 0% in assay [8] (Table 4a, 50 ppm a.i.); 0% in assay [8] (Table 4d, 12.5 ppm a.i.); 40% in assay [5] (Table 3a, 50 ppm a.i.).
For the molecule `Cn1c(=O)c2sc3c(=O)n(C)c(=O)c3sc2c1=O` [B15.60, 2,6-dimethyl-1H,5H-[1,4]dithiino[2,3-c:5,6-c′]dipyrrole-1,3,5,7(2H,6H)-tetrone], the pest or weed control at 50 ppm in assay [5] (Alternaria solani, 72 h, Table 3d, 50 ppm, read-out: Efficacy in % found) turned out to be 0%.
Turning to `CCN(C)C=Nc1cc(C)c(Oc2nc(Cc3ccc(Cl)cc3)ns2)cc1C` [B15.78, N′-(4-{[3-(4-chlorobenzyl)-1,2,4-thiadiazol-5-yl]oxy}-2,5-dimethylphenyl)-N-ethyl-N-methylimidoformamide], the pest or weed control at 5 ppm in assay [4] (Venturia inaequalis, 240 h, read-out: Efficacy in % found, Table 2f, 5 ppm a.i.) was 16%. For the same molecule, the pest or weed control at 62.5 ppm in [7] (Puccinia triticina, 192 h, application rate 62.5 ppm a.i., read-out: Efficacy in % found) came to 57%.
As to folpet [B5.16], the “Efficacy in % found” value in assay [4] (Table 2a, 12.5 ppm a.i.) is listed as 47%; in assay [4] (Table 2e, 10 ppm a.i.), 45%; in assay [1] (Table 8f, 200 ppm a.i.), 50%; in assay [2] (application rate 400 ppm a.i., wheat, preventive, evaluated 8 days after inoculation), 44%; in [8] (Table 4a, 25 ppm a.i.) it was 0%; in assay [5] (Table 3e, 12.5 ppm), 39%.
Take mancozeb [B5.23]: the “Efficacy in % found” value stood at 45% in [9] (Table 1c, 50 ppm a.i.); 0% in assay [2] (Table 9e, 100 ppm a.i.); 0% in [6] (Table 6c, 400 ppm); 0% in [8] (Table 4a, 25 ppm a.i.); 56% in assay [5] (Table 3a, 50 ppm a.i.); 0% in assay [5] (Table 3d, 50 ppm).
Turning to propamocarb-HCl [B10.10], the “Efficacy in % found” value in [4] (Table 2a, 50 ppm a.i.) is given as 0%; in [6] (Table 6c, 400 ppm) it was 13%; in assay [8] (Table 4a, 50 ppm a.i.) it was 0%; in [8] (Table 4d, 50 ppm a.i.) it was 70%; in assay [5] (Table 3a, 50 ppm a.i.), 0%.
In the case of propineb [B5.29], the “Efficacy in % found” value in assay [9] (Table 1c, 50 ppm a.i.) is 50%; in [6] (Table 6c, 400 ppm) it was 13%; in assay [8] (Table 4a, 50 ppm a.i.), 0%; in assay [8] (Table 4d, 50 ppm a.i.) it was 70%; in assay [5] (Table 3a, 50 ppm a.i.), 33%; in assay [5] (Table 3d, 50 ppm), 0%.
spiroxamine [B1.46]: the “Efficacy in % found” value in [2] (Table 9a, 200 ppm a.i.) is 29%; in assay [2] (application rate 200 ppm, wheat, preventive, evaluated 8 days after inoculation) it was 22% and 40%; in assay [8] (Table 4b, 25 ppm a.i.) it was 0%; in assay [7] (application rate 200 ppm a.i.), 0%.
